In experiment [1] the target is T1, Phosphatidylinositol 3,4,5-trisphosphate 5-phosphatase 1 (Homo sapiens) (UniProt Q92835).
T1 sequence (whole entry): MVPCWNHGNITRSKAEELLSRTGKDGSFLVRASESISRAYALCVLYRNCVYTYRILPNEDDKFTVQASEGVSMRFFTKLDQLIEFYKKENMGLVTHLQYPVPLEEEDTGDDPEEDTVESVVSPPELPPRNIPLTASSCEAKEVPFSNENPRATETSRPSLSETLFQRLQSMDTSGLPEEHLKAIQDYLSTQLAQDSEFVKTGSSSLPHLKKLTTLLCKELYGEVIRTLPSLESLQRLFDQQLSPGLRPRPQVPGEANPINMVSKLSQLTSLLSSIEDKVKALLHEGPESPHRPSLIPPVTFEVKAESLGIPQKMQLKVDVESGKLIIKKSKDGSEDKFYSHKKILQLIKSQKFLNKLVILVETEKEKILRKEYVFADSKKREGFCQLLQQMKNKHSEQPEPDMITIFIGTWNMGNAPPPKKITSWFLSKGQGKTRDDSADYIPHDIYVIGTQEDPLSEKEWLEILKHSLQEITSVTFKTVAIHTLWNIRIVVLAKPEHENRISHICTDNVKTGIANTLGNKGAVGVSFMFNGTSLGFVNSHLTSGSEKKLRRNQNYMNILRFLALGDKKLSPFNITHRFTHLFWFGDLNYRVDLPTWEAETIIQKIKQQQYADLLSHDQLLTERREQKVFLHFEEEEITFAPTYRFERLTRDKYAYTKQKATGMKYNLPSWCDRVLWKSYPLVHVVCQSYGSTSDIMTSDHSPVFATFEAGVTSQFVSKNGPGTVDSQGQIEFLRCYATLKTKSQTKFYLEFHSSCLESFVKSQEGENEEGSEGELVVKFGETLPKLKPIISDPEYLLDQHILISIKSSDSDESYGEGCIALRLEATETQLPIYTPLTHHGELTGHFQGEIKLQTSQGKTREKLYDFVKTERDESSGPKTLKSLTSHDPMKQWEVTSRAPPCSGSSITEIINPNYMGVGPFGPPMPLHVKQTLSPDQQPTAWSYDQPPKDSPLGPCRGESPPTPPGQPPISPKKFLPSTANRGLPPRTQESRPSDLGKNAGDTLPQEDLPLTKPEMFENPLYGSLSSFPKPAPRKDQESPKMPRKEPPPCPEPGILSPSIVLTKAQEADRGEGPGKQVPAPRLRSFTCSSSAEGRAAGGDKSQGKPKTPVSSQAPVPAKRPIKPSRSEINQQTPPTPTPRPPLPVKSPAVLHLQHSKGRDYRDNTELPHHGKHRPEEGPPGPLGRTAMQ
Briefly: Inhibition of recombinant human truncated SHIP1 using PI(3,4,5)P3diC8 at 1 mM after 30 mins by malachite green phosphatase release assay.

For experiment [2], the target named is T2, Phosphatidylinositol 3,4,5-trisphosphate 5-phosphatase 2 (Homo sapiens) (UniProt O15357).
T2 sequence (whole entry): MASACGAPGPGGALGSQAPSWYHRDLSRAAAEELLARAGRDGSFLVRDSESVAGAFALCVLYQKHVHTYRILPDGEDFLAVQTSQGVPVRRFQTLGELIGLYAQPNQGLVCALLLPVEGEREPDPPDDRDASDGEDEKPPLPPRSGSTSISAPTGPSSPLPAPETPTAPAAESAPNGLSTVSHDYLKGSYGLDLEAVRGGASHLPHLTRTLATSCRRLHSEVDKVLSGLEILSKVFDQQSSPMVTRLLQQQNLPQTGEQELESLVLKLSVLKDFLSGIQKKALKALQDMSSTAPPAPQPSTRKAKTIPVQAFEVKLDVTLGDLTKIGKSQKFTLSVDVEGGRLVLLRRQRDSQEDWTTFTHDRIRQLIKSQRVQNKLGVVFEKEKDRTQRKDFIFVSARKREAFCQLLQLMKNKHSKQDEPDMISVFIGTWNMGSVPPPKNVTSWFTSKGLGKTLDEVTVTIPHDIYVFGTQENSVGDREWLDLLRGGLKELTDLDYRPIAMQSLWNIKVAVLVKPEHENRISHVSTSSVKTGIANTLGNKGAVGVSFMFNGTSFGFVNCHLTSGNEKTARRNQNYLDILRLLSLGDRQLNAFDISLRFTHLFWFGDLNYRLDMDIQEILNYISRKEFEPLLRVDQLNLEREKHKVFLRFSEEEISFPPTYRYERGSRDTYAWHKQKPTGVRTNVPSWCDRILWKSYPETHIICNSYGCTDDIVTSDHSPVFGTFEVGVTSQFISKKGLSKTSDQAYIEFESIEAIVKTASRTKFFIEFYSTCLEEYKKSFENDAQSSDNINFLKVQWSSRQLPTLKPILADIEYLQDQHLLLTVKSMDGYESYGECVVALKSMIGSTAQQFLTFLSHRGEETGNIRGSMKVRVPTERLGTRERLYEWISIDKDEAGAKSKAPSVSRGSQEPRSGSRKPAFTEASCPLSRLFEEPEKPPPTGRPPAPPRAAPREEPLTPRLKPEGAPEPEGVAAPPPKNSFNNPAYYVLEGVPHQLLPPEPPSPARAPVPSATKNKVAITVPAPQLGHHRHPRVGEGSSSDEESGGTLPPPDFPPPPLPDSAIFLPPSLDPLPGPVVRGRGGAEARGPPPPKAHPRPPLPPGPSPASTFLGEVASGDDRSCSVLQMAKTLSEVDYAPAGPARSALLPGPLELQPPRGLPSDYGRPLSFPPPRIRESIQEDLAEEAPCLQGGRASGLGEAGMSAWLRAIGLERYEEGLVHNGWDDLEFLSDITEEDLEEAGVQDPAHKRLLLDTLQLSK
Briefly: Inhibition of recombinant human truncated SHIP2 using PI(3,4,5)P3diC8 at 1 mM after 30 mins by malachite green phosphatase release assay.

In experiment [3] the target is T1, Phosphatidylinositol 3,4,5-trisphosphate 5-phosphatase 1 (Homo sapiens). In words: Inhibition of recombinant human truncated SHIP1 using PI(3,4,5)P3diC8 at 500 uM after 30 mins by malachite green phosphatase release assay.
The target in experiment [4] is T2, Phosphatidylinositol 3,4,5-trisphosphate 5-phosphatase 2 (Homo sapiens). In words: Inhibition of recombinant human truncated SHIP2 using PI(3,4,5)P3diC8 at 500 uM after 30 mins by malachite green phosphatase release assay.

Experimental findings from ChEMBL document CHEMBL3627712, “Synthesis and initial evaluation of quinoline-based inhibitors of the SH2-containing inositol 5'-phosphatase (SHIP)” (Bioorg Med Chem Lett, 2015) are described below.

By inhibition is commonly meant the percentage by which the read-out fell short of the control. Regarding `OC(c1cc(-c2ccccc2)nc2c1ccc1ccccc12)C1CCCCN1` (centres undefined), the inhibition in experiment [1] was determined as 38%; in experiment [2], 17%.
For the molecule `O=C(O)c1cc(C23CC4CC(CC(C4)C2)C3)nc2c(Cl)cc(Cl)cc12`, the inhibition turned out to be 44% in experiment [3] and 0% in experiment [4].
Regarding `O=C(O)c1cc(-c2ccccc2)nc2c1ccc1ccccc12`, the inhibition in experiment [3] was 7%; in experiment [4] it was 0%.
`C=C[C@H]1CN2CC[C@H]1C[C@@H]2[C@@H](O)c1ccnc2ccc(OC)cc12`: the inhibition worked out at 19% in experiment [1] and 5% in experiment [2].
As to `OCc1cc(C23CC4CC(CC(C4)C2)C3)nc2c(Cl)cc(Cl)cc12`, the inhibition in experiment [3] was found to be 0%; in experiment [4], 14%.
For `CN[C@@H](C)[C@H](O)c1ccccc1`, the inhibition in experiment [1] and in experiment [2] was 0% each time.
As to `OCc1cc(-c2ccccc2)nc2c1ccc1ccccc12`, the inhibition in experiment [3] came out at 2%; in experiment [4], 18%.
In the case of `OC(c1cc(C(F)(F)F)nc2c(C(F)(F)F)cccc12)C1CCCCN1` (centres undefined), the inhibition in experiment [1] and in experiment [2] was 54% each time.
For the molecule `C=C[C@H]1CN2CC[C@H]1C[C@H]2[C@H](O)c1ccnc2ccc(OC)cc12`, the inhibition worked out at 0% in experiment [1] and 8% in experiment [2].
As for `OC(c1cc(C23CC4CC(CC(C4)C2)C3)nc2c(Cl)cc(Cl)cc12)C1CCCCN1` (centres undefined), the inhibition in experiment [1] is 38%; in experiment [2], 73%.
Turning to `NCc1cc(-c2ccccc2)nc2c1ccc1ccccc12`, the results for the inhibition in experiment [1] and in experiment [2] were 41% and 66%, respectively.
`CN[C@@H](C)[C@@H](O)c1ccccc1`: the inhibition is 2% in experiment [1] and 13% in experiment [2].
